Assay results reported in paper PMC4721062, “Oxadiazole-2-oxides may have other functional targets, in addition to SjTGR, through which they cause mortality in Schistosoma japonicum” (Parasites & Vectors, 2016).
Read-outs that look alike come from different tables or passages of the source.

Key:
recombinant SjTGR = target: T1, recombinant SjTGR (Schistosoma japonicum, UniProt B5THG7); assay: Inhibition of TrxR activity of recombinant SjTGR (DTNB assay); assay type: biochemical; conditions: IC50 of SjTGR, 50 nM SjTGR, 1 mM NADPH, 15 min preincubation, DTNB reduction
T1 sequence (B5THG7 1-596): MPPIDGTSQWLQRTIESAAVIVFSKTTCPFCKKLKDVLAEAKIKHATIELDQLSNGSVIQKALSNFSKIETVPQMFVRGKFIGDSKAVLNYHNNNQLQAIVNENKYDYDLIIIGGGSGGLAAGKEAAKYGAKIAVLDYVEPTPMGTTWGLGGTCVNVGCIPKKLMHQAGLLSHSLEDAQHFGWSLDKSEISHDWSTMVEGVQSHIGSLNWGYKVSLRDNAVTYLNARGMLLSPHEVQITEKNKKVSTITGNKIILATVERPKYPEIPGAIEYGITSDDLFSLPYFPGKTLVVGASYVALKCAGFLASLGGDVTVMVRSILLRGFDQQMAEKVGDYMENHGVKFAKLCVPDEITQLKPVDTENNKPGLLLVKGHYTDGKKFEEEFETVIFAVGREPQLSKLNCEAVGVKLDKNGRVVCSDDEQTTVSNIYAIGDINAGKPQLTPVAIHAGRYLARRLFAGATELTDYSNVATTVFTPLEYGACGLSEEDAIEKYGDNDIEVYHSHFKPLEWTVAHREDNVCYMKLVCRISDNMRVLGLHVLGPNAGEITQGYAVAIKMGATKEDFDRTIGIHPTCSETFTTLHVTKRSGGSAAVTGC
Description: The purified recombinant SjTGR proteins were produced according to the method described by Song et al.. The inhibition of TrxR activity by the recombinant SjTGR was performed as reported by Rai et al.. Briefly, 50 nM SjTGR and 1 mM NADPH were incubated with different concentrations of oxadiazole-2-oxides (2, 4, 6, 10, 20 μM) for 15 min at room temperature. Then, potassium phosphate buffer (pH 7.4) containing 10 mM EDTA, 100 μM NADPH, and 3 mM DTNB was added to start the reaction. The increase of absorbance at 412 nm was monitored during the first 2 min. All assays were done in triplicate.
50 nM SjTGR and 1 mM NADPH were incubated with different concentrations of oxadiazole-2-oxides (2, 4, 6, 10, 20 μM) for 15 min at room temperature. Then, potassium phosphate buffer (pH 7.4) containing 10 mM EDTA, 100 μM NADPH, 3 mM DTNB was added to start the reaction. The increase in absorbance at 412 nm was monitored during the first 2 min. All assays were done in triplicate. Results shown are the mean ± SD (n = 3)

[1] = test system: juvenile S. japonicum in mice; assay: Treatment of infected mice at juvenile worm stage; assay type: in vivo, Schistosoma japonicum (ICR mice); conditions: 10 mg/kg i.p. daily for 5 days from day 7 post-infection
Description: (§1) The abdominal skin of each mouse (ICR, female, 22–24 g) was exposed to 20 S. japonica cercariae (as described above). The mice were intraperitoneally injected with 10 mg/kg oxadiazole-2-oxides daily for 5 days, beginning either 7 or 35 days post-infection. Control mice were treated with 10 mg/kg of the carrier medium. All mice were sacrificed 42 days post-infection. The worm burden of each mouse was confirmed by counting the number of worms observed from a portal vein perfusion. The mouse livers were digested overnight with 5 % potassium hydroxyl solution at 37 °C and the eggs in the liver tissue were counted under an inverted phase contrast microscope. The worm and egg reduction rates were calculated using the following formulas: Wormreductionrate%=meannumberofadultwormspermouseincontrolgroup−meannumberofadultwormspermouseinexperimentalgroup/meannumberofadultwormspermouseincontrolgroup. Eggreductionrate%=meannumberofeggspermouseincontrolgroup−meannumberofeggspermouseinexperimentalgroup/meannumberofeggspermouseincontrolgroup.

juvenile S. japonicum = assay: microbe, parasite or virus in culture; assay type: cell-based; conditions: juvenile worms
Description: Infected Oncomelania hupensis, provided by the Department of Snail Biology, Jiangsu Institute of Parasitic Diseases, were incubated at 25–28 °C, under illumination, for 2 h to hatch S. japonicum cercariae. The cercariae were collected from the water surface with clean cover glass and placed into a centrifuge tube using pre cooled RPMI 1640. Centrifugation was performed for 1 min at 1500 rpm, and then the steps above were repeated. After centrifugation, the supernatant solution was removed. The cercariae at the bottom were washed twice and resuspended with RPMI 1640. Approximately 20–30 cercariae (1 mL of the resuspension medium) were added to one well in a 24-well culture plate. They were incubated overnight at 37 °C with 5 % CO2. The survival rates and number of tails shed were observed under an inverted microscope. Cercariae that had shed their tails were used as juvenile S. japonicum.
20–30 juvenile worms were transferred into each well of a 24-well culture plate, containing 2 mL RPMI 1640 medium, 20 mM HEPES, 100 IU/mL penicillin, […] streptomycin and 10 % fetal bovine serum. Then, oxadiazole-2-oxides (2, 5, 10, and 50 μM), diluted with the RPMI 1640 medium, were added to their allocated wells. The worms in the negative control wells were treated with equal volumes of RPMI 1640 or DMSO and worms treated with AS were observed as positive controls. The juvenile worms’ survival rates were observed under an inverted phase contrast microscope (Leica, Wetzlar, Germany) at 24, 48 and 72 h. Parasite death was defined as an unclear internal structure of the juvenile worms, with incomplete tegument and contents overflowing radially, or unclear internal structure with complete tegument, but having no motor activity during 1 min of continuous observation. All assays were repeated three times.
^b Data collected by visual examination of worm movement and shape; % D = The number of worms dead / The total number of worms observed, and worms dead judged by unclear internal structure of juvenile worms with uncompleted tegument, and contents overflowing radially, or unclear internal structure with complete tegument, but having no motor activity during 1 min of continuous observation. The data presented are the average of three independent experiments.

adult S. japonicum = assay: microbe, parasite or virus in culture; assay type: cell-based; conditions: adult worms
Excerpt: ICR mice (20–22 g), were obtained from the Shanghai Sub-Center of Experimental Animals, Chinese Academy of Sciences. They were maintained at the Department of Experimental Animals, Jiangsu Institute of Parasitic Diseases. To infect each mouse, its abdominal skin was exposed to 50 S. japonica cercariae. All of the mice were executed to collect S. japonica adult worms, through portal vein perfusion, 35 days post-infection. The adult S. japonica collected were washed with RPMI 1640 medium and then kept in RPMI 1640 medium (pH 7.5) with HEPES 20 mM, penicillin (100 IU/mL), streptomycin ([…]) and 10 % fetal bovine serum. Then, two pairs of adult worms were transferred into each well of a 24-well culture plate, with 2 mL of the same medium. The worms were cultured at 37 °C in a humid atmosphere with 5 % CO2.
Adult worms were cultured in a 24-well culture plate for 30–60 min at 37 °C, in a humid atmosphere with 5 % CO2. Then, oxadiazole-2-oxides at different concentrations (10, 25, 50, 100 μM) were added. Equal volumes of RPMI 1640 or DMSO were applied as negative controls, while PZQ was applied as a positive control. The adult worm mobility and parasite survival rates were monitored using an inverted phase contrast microscope, at 24, 48 and 72 h. Parasite death was defined as there being no motor activity during 2 min of continuous observation, and morphological and tegumental alterations. All assays were repeated three times.
^b Data collected by visual examination of worm movement and shape; n.e. […] The data presented are the average of three independent experiments.

[2] = Cytotoxicity assay on Hela cells (MTT); assay type: cell-based; conditions: human
Description: Cytotoxicity assays were performed using Hela cells. Cells in the exponential growth phase were collected by centrifugation and a concentration of 4–5 × 10^4/mL was created. 100 μL of the cell suspension was added to each well of a 96-well plate and cultured overnight at 37 °C in a humid atmosphere with 5 % CO2. Oxadiazole-2-oxides (at 10, 20, 40, 80 and 160 μM) were added. Each concentration was assayed in triplicate, and control wells (no cells and no drugs) were assayed at the same time. The “no cell” control wells only contained RPMI 1640 medium, MTT, DMSO, and oxadiazole-2-oxides. The “no drug” control wells contained the Hela cells, RPMI 1640 medium, MTT and DMSO. The cells were cultured for 48 h at 37 °C in a humid atmosphere with 5 % CO2. Then, 20 μL of 5 mg/mL MTT was added to each well and the culture conditions were maintained for 4 h. After this point, the medium was removed and 150 μL DMSO was added into each well to dissolve any crystallisation. The value of absorbance at 570 nm of each well was measured (at 570 nm) with a microplate reader to assess the toxic effect of the oxadiazole-2-oxides on the vertebrate cells.

[3] = test system: adult S. japonicum in mice; assay: Treatment of infected mice at adult worm stage; assay type: in vivo, Schistosoma japonicum (ICR mice)
Description: as §1

[4] = Schistosoma japonicum, 24 h, read-out: Killing activity 24hr
[5] = Schistosoma japonicum, 48 h, read-out: Killing activity 48hr
[6] = Schistosoma japonicum, 72 h, read-out: Killing activity 72hr
[7] = mice, 10 mg/kg i.p. daily for 5 days from day 35 post-infection, sacrificed day 42

For C[C@@H]1CC[C@H]2[C@@H](C)C(=O)O[C@@H]3O[C@@]4(C)CC[C@@H]1[C@]32OO4 [AS, artemisinin, reference compound], the IC50 (recombinant SjTGR) was greater than 20 µM, the “Number of eggs per gram of liver (Mean ± SD)” value ([1]; sacrificed day 42) was 2,932.2 ± 1,149.3 and the “Number of worms (Mean ± SD)” value ([1]; sacrificed day 42) was 2.3 ± 1.0. For the same molecule, the Egg reduction rate ([1]; versus control) was 63.5 (P < 0.01^*) %, the Worm reduction rate ([1]; versus control, 10 mg/kg) was 78.5 (P < 0.01^*) % and the killing at 2 µM (juvenile S. japonicum; [4]) was 16.2%. For the same molecule, the killing at 2 µM (juvenile S. japonicum; [5]) was 24.3%, the killing at 2 µM (juvenile S. japonicum; [6]) was 32.4% and the killing at 5 µM (juvenile S. japonicum; [4]) was 34.1%. For the same molecule, the killing at 5 µM (juvenile S. japonicum; [5]) was 36.4%, the killing at 5 µM (juvenile S. japonicum; [6]) was 40.9% and the killing at 50 µM (juvenile S. japonicum; Schistosoma japonicum, 50 μM, 24 h, read-out: Killing activity 24hr) was 51.3%. For the same molecule, the mortality at 50 µM (juvenile S. japonicum; Schistosoma japonicum, 50 μM, 24 h, read-out: Mortality of juvenile worms) was 51.3 ± 5.1%, the killing at 50 µM (juvenile S. japonicum; Schistosoma japonicum, 50 μM, 48 h, read-out: Killing activity 48hr) was 66.7% and the killing at 50 µM (juvenile S. japonicum; Schistosoma japonicum, 50 μM, 72 h, read-out: Killing activity 72hr) was 76.9%. For the same molecule, the “Killing activity 24hr” value (juvenile S. japonicum; 10 μM, 24 h) was 47.6%D, the “Killing activity 48hr” value (juvenile S. japonicum; 10 μM, 48 h) was 66.7%D and the “Killing activity 72hr” value (juvenile S. japonicum; 10 μM, 72 h) was 71.4%D.
With O=C(C1CCCCC1)N1CC(=O)N2CCc3ccccc3C2C1 (centres unmarked) [PZQ, praziquantel, reference compound] the IC50 (recombinant SjTGR) was greater than 20 µM, the killing at 25 µM (adult S. japonicum; Schistosoma japonicum, 25 μM, 24 h, read-out: Killing activity 24hr) was 25% and the mortality at 25 µM (adult S. japonicum; Schistosoma japonicum, 25 μM, 24 h, read-out: Mortality of adult worms) was 25 ± 7.8%. The killing at 25 µM (adult S. japonicum; Schistosoma japonicum, 25 μM, 48 h, read-out: Killing activity 48hr) was 25%, the killing at 25 µM (adult S. japonicum; Schistosoma japonicum, 25 μM, 72 h, read-out: Killing activity 72hr) was 62.5% and the killing at 50 µM (adult S. japonicum; [4]) was 25%. For the same molecule, the killing at 50 µM (adult S. japonicum; [5]) was 37.5%, the killing at 50 µM (adult S. japonicum; [6]) was 62.5% and the killing at 100 µM (adult S. japonicum; [4]) was 37.5%. The killing at 100 µM (adult S. japonicum; [5]) was 50%, the killing at 100 µM (adult S. japonicum; [6]) was 87.5% and the “Killing activity 24hr” value (adult S. japonicum; 10 μM, 24 h) was 25.0%D. For the same molecule, the “Killing activity 48hr” value (adult S. japonicum; 10 μM, 48 h) was 25.0%D, the “Killing activity 72hr” value (adult S. japonicum; 10 μM, 72 h) was 37.5%D and the viability at 72 h, 80 µM [2] was 76%. For the same molecule, the “Reduction in the female worms” value ([3]; mice treated at adult worm stage (data not shown)) was 60.5%, the “Number of eggs per gram of liver (Mean ± SD)” value [3, 7] was 3721.5 ± 1600.6 and the “Number of worms (Mean ± SD)” value [3, 7] was 3.3 ± 1.7. For the same molecule, the Egg reduction rate ([3]; mice, 10 mg/kg i.p. daily for 5 days from day 35 post-infection, versus control) was 53.7 (P < 0.01^*) % and the Worm reduction rate ([3]; mice, 10 mg/kg i.p. daily for 5 days from day 35 post-infection, versus control, 10 mg/kg) was 72.3 (P < 0.01^*) %.
